Test results from the METLIN SMRT retention time set (Domingo-Almenara et al. 2019).

Assay: gradient 5% acetonitrile 3 min, to 50% in 2 min, to 85% in 15 min, held 3 min, 100 µL/min
Settings: column: Zorbax Extend-C18 2.1 x 50 mm; eluents: water / acetonitrile, 0.1% formic acid
Method in brief: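 Retention times come from adduct peaks that were picked computationally and then checked by hand. The standards, pure and pooled in mixtures of ~100 molecules, were run on a Zorbax Extend-C18 column (2.1 × 50 mm, 1.8 μm) at 100 μL/min with water and acetonitrile, each with 0.1% formic acid. Detection was by quadrupole time-of-flight mass spectrometry in positive and negative ionization mode, with a dead volume of 40 μL and a dwell volume of 900 μL.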

RP-LC retention time [s] | Structure (SMILES)
961 | COC(=O)c1ccc(NC(=O)c2cnc(-c3ccc(C)cc3)nc2-c2ccncc2)cc1
638 | Cc1ccc2c(=O)c3c([nH]c2c1C)CCN(CC(=O)Nc1cc(F)ccc1F)C3
735 | O=C(NCCC1CCN(C(=O)Nc2cc(F)cc(F)c2)CC1)C1CC1
862 | Cc1ccc(-c2cn3c(CC(=O)Nc4ccc(F)cc4C)csc3n2)cc1C
787 | CCc1ccccc1S(=O)(=O)NCC(c1cccnc1)c1cn(C)c2ccccc12 (stereo not drawn)
839 | Cc1ccccc1N1CCN(C(=O)c2ccc3c(c2)CC(=O)N3C)CC1
631 | O=C(NC1CCCCCCC1)C1CCCN(C(=O)c2cc(-c3cccnc3)n[nH]2)C1 (stereo not drawn)
656 | CCCS(=O)(=O)N1CCC(F)(F)C(COCc2cccnc2)C1 (stereo not drawn)
1070 | CCC1CCCCN1C(=O)CSc1nc2c3cc(OC)ccc3n(C)c2c(=O)n1CC (stereo not drawn)
585 | CN1CCc2c([nH]c3ccccc23)C12CCN(S(=O)(=O)c1cccnc1)CC2
687 | O=C(Nc1nc2cccc(-c3ccc(CN4CCS(=O)(=O)CC4)cc3)n2n1)C1CC1
786 | COc1ccccc1NC(=O)Cc1csc2nc(-c3ccccc3)cn12
740 | COc1ccc(NC(=O)C2CC(=O)N(c3ccc4c(c3)CCN4C(=O)C3CC3)C2)c(C)c1 (stereo not drawn)
810 | O=C(c1cccs1)N1CCC2(CC1)NC(=O)N(Cc1cccc(Cl)c1)C2=O
701 | CCN1C(=O)CCc2cc(NC(=O)c3ccn(CC)n3)ccc21
982 | CC(C)CCn1nc2c(S(=O)(=O)N3CCCCCC3)cccn2c1=O
749 | COc1ccc(CCC(=O)NCc2cccnc2OC)cc1
656 | Cc1noc(C2CCCCN2Cc2nc(-c3cccnc3)no2)n1 (stereo not drawn)
913 | CCOC(=O)c1c(S(=O)(=O)N2CCC(C(=O)Nc3ccc(Cl)cc3)CC2)c(C)n(C)c1C
1180 | CC(C)n1c(=O)oc2cc(-c3noc(-c4cccc(Cl)c4)n3)ccc21
894 | CCc1nc2ccccc2c(=O)n1Cc1noc(-c2ccc(OC)c(OC)c2)n1
1070 | Cc1csc(-c2cc(S(=O)(=O)Nc3ccc(F)c(Cl)c3)c(C)s2)n1

RP-LC retention time [s] | Structure (SMILES)
585 | CCN1CCN(CCCNC(=O)CCCN2C(=O)COc3ccc(C)cc32)CC1
1000 | CC(C)Cn1cc(CCNS(=O)(=O)c2ccc(F)c(Cl)c2)c2cccnc21
813 | Cc1nc(-c2ccc(N3CCN(C(=O)c4ccc5c(c4)OCO5)CC3)nc2)sc1C
698 | CN(C)C(=O)c1cc2c(s1)CCC(C(=O)Nc1ccc3c(c1)OCO3)C2 (stereo not drawn)
851 | COc1ccc(-c2cc(C(F)(F)F)n3nc(C(=O)O)cc3n2)cc1
734 | CCOc1ccccc1C1CC(=O)NC(SCC(=O)Nc2nccs2)=C1C#N (stereo not drawn)
739 | CC(=O)c1cccc(NC(=O)c2cc(-c3cccnc3)nc3ccccc23)c1
662 | CN1CCN(CCNC(=O)C2CCCN(c3nc4ccccc4n(Cc4ccccc4)c3=O)C2)CC1 (stereo not drawn)
664 | Cc1ccc2nc(C(=O)N3CCN(c4ccccc4C)CC3)cn2c1
951 | CS(=O)(=O)N1CCCc2cc(C(=O)Nc3ccc(Br)cc3F)ccc21
1040 | CCCCn1cc(S(=O)(=O)NCc2ccccc2C(F)(F)F)c2cccnc21
848 | CCOC(=O)c1c(C)[nH]c(C(=O)N2CCCC(C(=O)NCc3cccc(Cl)c3)C2)c1C (stereo not drawn)
646 | COc1ccc(-c2csc(NC(=O)CCc3c(C)[nH]c(=O)[nH]c3=O)n2)cc1
673 | COc1ccccc1CCNC(=O)C1CN(C(=O)c2c[nH]c3ccccc23)C1
861 | O=C(NCc1csc(-c2ccccc2)n1)[C@H]1CCCN1C(=O)COc1ccc(Cl)cc1
712 | COc1ccc(OC)c(CNC(=O)COc2ccc(NC(=O)C3CC3)cn2)c1
678 | Cc1cccc(N2CC(C(=O)NC(C)C)CC2=O)c1 (stereo not drawn)
694 | COCCN1C(=O)[C@H]2CN(Cc3ccc(OC(F)(F)F)cc3)C[C@H]2C1=O
604 | Cc1nc(-c2ccccn2)cc2nn(CC(=O)NCC3CCCO3)c(=O)n12 (stereo not drawn)
875 | CC1=C(c2ccc(Cl)cc2)S(=O)(=O)N=C1N1CCCN(C(=O)CC(C)C)CC1
982 | Cc1nc2nc(-c3ccc(C(C)(C)C)cc3)nn2c(C)c1CC(=O)N(CCO)Cc1ccccc1
1170 | COc1ccc(S(=O)(=O)N2CCC(c3noc(-c4cccc(C)c4)n3)CC2)cc1

RP-LC retention time [s] | Structure (SMILES)
937 | CC(=O)Nc1ccc(NC(=O)Cn2cccc(-c3nc(-c4ccc(Cl)cc4)no3)c2=O)cc1
753 | COc1ccc(NC(=O)Cn2c(=O)n(-c3ccc(F)cc3)c3ncccc32)cc1OC
943 | Cc1cc(C)n(-c2ccc(C(=O)NCc3cc(F)cc(F)c3)cn2)n1
727 | COc1ccc(OC)c(Nc2c(-c3cccc(O)c3)nc3cnccn23)c1
1120 | Cc1cc(C)c(NS(=O)(=O)c2c(C)cc(C)cc2C)c(C)c1
608 | CN(Cc1ccccc1)Cc1cc(=O)n2cc(Cl)ccc2n1
570 | CCNC(=O)N1CCC(OC2CCN(Cc3ccccc3)CC2)CC1
1310 | O=C(Nc1nc(-c2ccc(Cl)cc2)cs1)c1ccc(COc2ccccc2Cl)o1
986 | O=C(Nc1ccc(Cl)cc1)c1cnc(-c2ccc(F)cc2)nc1-c1ccncc1
486 | O=C(c1cccnc1)N1CCCC(c2n[nH]c(C3CC3)n2)C1 (stereo not drawn)
1140 | CCN(CC)S(=O)(=O)c1cccc(-c2nnc(-c3ccc(Cl)cc3)o2)c1
903 | Cc1noc(-c2ccnc(-n3ncc(C(=O)NCCc4c[nH]c5ccccc45)c3C)c2)n1
811 | COc1cc(-c2nc3ncccn3c2NCc2ccc(C)cc2)ccc1OC(C)C
919 | Cc1ccc(-c2nocc2CCC(=O)NCc2ccc(F)cc2)cc1
1060 | Cc1ccc(N2N=NC3C(=O)N(c4cccc(Cl)c4)C(=O)C32)cc1F (stereo not drawn)
693 | CC1=C(c2ccccc2)S(=O)(=O)N=C1N1CCCN(C(=O)c2ccccn2)CC1
584 | CCn1c(=O)cc(OCC(=O)N2CCN(c3ccccn3)CC2)c2ccccc21
1070 | CCn1c(=O)c2ccccc2n(Cc2nc(-c3ccc(C)cc3)no2)c1=O
814 | Cc1ccccc1-c1nc(-c2ccc(-n3ccnc3)nc2)no1
698 | Cc1ccc(NC(=O)N2CCN(C(=O)N3C[C@H]4C[C@H](C3)[C@H]3CCCC(=O)N3C4)CC2)cc1C
728 | CCOCCCNC(=O)CCCn1c2ccccc2c2cnn(C)c(=O)c21
775 | CCNC(=O)CCc1nc2ccccc2n(CC(=O)Nc2ccccc2OCC)c1=O

RP-LC retention time [s] | Structure (SMILES)
855 | CC(C)CN1CCn2cc(S(=O)(=O)NCc3ccc(F)c(Cl)c3)cc2C1=O
618 | COCCc1nncn1C1CCN(C(=O)c2cc(F)ccc2F)CC1
673 | COc1ccc(Cn2c(C)c(CNCc3ccco3)c(C(=O)O)c2C)cc1
913 | COc1ccc(Cc2nn3c(Cc4ccc(OC)cc4)nnc3s2)cc1
659 | COCC(=O)N1CCCCCCNC(=O)[C@@H]2CCCC[C@@H]21
818 | Cc1cc(C)n(Cc2nc(-c3ccc(NC(=O)c4ccco4)cc3)oc2C)n1
683 | COCCn1c(SCc2c(F)cccc2Cl)nnc1-c1cn(C)nc1OC
855 | O=C(C1CC1)N1CCc2sc(S(=O)(=O)NCc3ccccc3Cl)cc2C1
716 | CC(C)NC(=O)C1CCCN(c2nc3ncn(CC(=O)Nc4ccc(F)c(F)c4)c(=O)c3s2)C1 (stereo not drawn)
726 | O=C(NC1CCN(c2cc(-c3cccs3)[nH]n2)C1)c1ccc(F)cc1 (stereo not drawn)
702 | O=C(NCC(c1cccnc1)N1CCc2ccccc21)C(=O)Nc1ccccc1[N+](=O)[O-] (stereo not drawn)
730 | O=c1ccc(-c2ccc3c(c2)OCO3)nn1CCc1nc(-c2ccncc2)no1
977 | CCn1c(=O)c2cc(C(=O)Nc3cccc(C(=O)OC)c3)nn2c2ccccc21
825 | C=CC(=O)Nc1ccc2ncnc(Nc3ccc(OCc4cccc(F)c4)c(Cl)c3)c2c1
922 | CCOc1ccc(Cl)cc1S(=O)(=O)N1CCC(C(=O)NCc2ccc3c(c2)OCO3)CC1
740 | Cc1nnc2cc(N3CCN(S(=O)(=O)c4ccc(Br)cc4)CC3)cnn12
709 | O=C(Nc1cc(F)cc(F)c1)c1c(O)c2cccnc2n(-c2ccccc2)c1=O
918 | CCS(=O)(=O)c1nc2ccc(NS(=O)(=O)CCc3ccccc3)cc2s1
789 | COc1cccc(N2CCN(c3ccnc(SCC(=O)Nc4ccccc4F)n3)CC2)c1
821 | CCn1ncc(NC(=O)COc2ccc(F)cc2)c(N2CCOCC2)c1=O
674 | COc1ccc(-c2nc(N3CCOCC3)c3sc(CN(C)c4ncc(C(=O)NO)cn4)cc3n2)cn1

Structure (SMILES) | RP-LC retention time [s]
CC12C(=O)OC(=O)C1(C)C1CCC2O1 (stereo not drawn) | 813
